Where a name gives a salt, the structure may show the parent alone.
The compounds below were run against T1, Human D1 Receptor (Homo sapiens, UniProt P21728) (assay: Human D1 Receptor Binding Assay ([3H]-SCH23390 competition binding)). Conditions: over-expressing LTK human cell lines; 0.5 nM [3H]-SCH23390; 30 min at 37° C.; footnote a = geometric mean of ≧5 determinations, footnote b = single determination; read-out: Human D1 Receptor Binding, Ki (nM); Geometric mean of 2-4 determinations (unless otherwise indicated).
T1 construct: expressed in transfected cells; host or cells: LTK cell line over-expressing the D1 receptor
T1 sequence (P21728 whole entry): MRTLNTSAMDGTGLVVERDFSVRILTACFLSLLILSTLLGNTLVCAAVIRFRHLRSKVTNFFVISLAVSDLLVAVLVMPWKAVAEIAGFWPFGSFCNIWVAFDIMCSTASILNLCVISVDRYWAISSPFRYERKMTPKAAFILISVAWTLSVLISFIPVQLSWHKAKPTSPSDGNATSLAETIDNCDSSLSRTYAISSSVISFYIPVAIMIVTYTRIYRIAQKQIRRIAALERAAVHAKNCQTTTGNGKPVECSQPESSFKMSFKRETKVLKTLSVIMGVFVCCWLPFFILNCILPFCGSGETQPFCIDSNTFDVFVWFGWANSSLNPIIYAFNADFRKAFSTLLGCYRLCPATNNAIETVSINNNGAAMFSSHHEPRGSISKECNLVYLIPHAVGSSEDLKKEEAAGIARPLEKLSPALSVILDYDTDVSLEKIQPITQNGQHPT
Experimental: The affinity of the compounds described herein was determined by competition binding assays similar to those described in Ryman-Rasmussen et al., “Differential activation of adenylate cyclase and receptor internalization by novel dopamine D1 receptor agonists”, Molecular Pharmacology 68(4):1039-1048 (2005).
D1 binding assays were performed using over-expressing LTK human cell lines. […] These ligand and tissue concentrations were used in time course studies to determine linearity and equilibrium conditions for binding. Binding was at equilibrium with the specified amount of tissue in 30 minutes at 37° C. […] The pellet was resuspended in assay buffer [50 mM Tris (pH 7.4@RT) containing 4 mM MgSO4 and 0.5 mM EDTA]. […] Non-specific binding was determined by radioligand binding in the presence of a saturating concentration of (+)-Butaclamol (10 μM), a D1 antagonist. After a 30 minute incubation period at 37° C., assay samples were rapidly filtered through Unifilter-96 GF/B PEI-coated filter plates and rinsed with 50 mM Tris buffer (pH 7.4 at 4° C.). […] The IC50 value (concentration at which 50% inhibition of specific binding occurs) was calculated by linear regression of the concentration-response data in Microsoft Excel. Ki values were calculated according to the Cheng-Prusoff equation: […]

Compared with `Cc1ncnc(C)c1-c1ccc(Oc2ncnc3ccsc23)cc1F` [Example 24, 4-[4-(4,6-dimethylpyrimidin-5-yl)-3-fluorophenoxy]thieno[3,2-d]pyrimidine, trifluoroacetate salt], `Cc1ncnc(C)c1-c1ccc(Oc2ncnc3ccsc23)cc1Cl` [Example 17, 4-[3-chloro-4-(4,6-dimethylpyrimidin-5-yl)phenoxy]thieno[3,2-d]pyrimidine] is 21-fold lower in Ki: 531 nM for the first, 25.4 nM for the second. The second binds more tightly here.

`Cc1ncnc(C)c1-c1ccc(Oc2nccc3ccsc23)cc1Cl` [Example 36, 7-[3-chloro-4-(4,6-dimethylpyrimidin-5-yl)phenoxy]thieno[2,3-c]pyridine] and `Cc1ncnc(C)c1-c1ccc(Oc2nccc3ccsc23)cc1F` [Example 50, 7-[4-(4,6-dimethylpyrimidin-5-yl)-3-fluorophenoxy]thieno[2,3-c]pyridine] are the same in Ki: 6.7 nM for the first, 6.7 nM for the second.

Compared with `Cc1ncnc(C)c1-c1ccc(Oc2ncnc3ccsc23)cc1C#N` [Example 35, 2-(4,6-dimethylpyrimidin-5-yl)-5-(thieno[3,2-d]pyrimidin-4-yloxy)benzonitrile], `Cc1ncnc(C)c1-c1ccc(Oc2nccc3ccsc23)cc1C#N` [Example 49, 2-(4,6-dimethylpyrimidin-5-yl)-5-(thieno[2,3-c]pyridin-7-yloxy)benzonitrile] is 29-fold lower in Ki: 480 nM for the first, 16.3 nM for the second. The second binds more tightly here.

Going from `Cc1cc(Oc2ncnc3ccsc23)ccc1-c1cn[nH]c(=O)c1C` [Example 4, 4-methyl-5-[2-methyl-4-(thieno[3,2-d]pyrimidin-4-yloxy)phenyl]pyridazin-3(2H)-one] to `Cc1cc(Oc2ncnc3ccsc23)ccc1-c1c(C)ncc(=O)n1C` [Example 15, 1,5-dimethyl-6-[2-methyl-4-(thieno[3,2-d]pyrimidin-4-yloxy)phenyl]pyrazin-2(1H)-one], the Ki falls from 68.4 nM to 34.5 nM (2-fold).

First: COc1cc(Oc2nccc3ccsc23)ccc1-c1cccnc1C [Example 44, 7-[3-methoxy-4-(2-methylpyridin-3-yl)phenoxy]thieno[2,3-c]pyridine, trifluoroacetate salt]
Second: COc1cc(Oc2nccc3ccsc23)ccc1-c1nccnc1C [Example 10, 7-[3-methoxy-4-(3-methylpyrazin-2-yl)phenoxy]thieno[2,3-c]pyridine]
The Ki of the first is 2.7-fold lower: 16.4 nM for the first, 44.9 nM for the second.

Compared with `Cc1ncnc(C)c1-c1cc(F)c(Oc2ncnc3ccsc23)cc1F` [Example 21, 4-[4-(4,6-dimethylpyrimidin-5-yl)-2,5-difluorophenoxy]thieno[3,2-d]pyrimidine], `Cc1cc(Oc2ncnc3ccsc23)c(F)cc1-c1c(C)ncnc1C` [Example 18, 4-[4-(4,6-dimethylpyrimidin-5-yl)-2-fluoro-5-methylphenoxy]thieno[3,2-d]pyrimidine] is 1.8-fold lower in Ki: 62.4 nM for the first, 34.5 nM for the second. The second binds more tightly here.

`Cc1cc(Oc2nccc3cc[nH]c23)ccc1-c1c(C)ncc2nccn12` [Example 54, 6-methyl-5-[2-methyl-4-(1H-pyrrolo[2,3-c]pyridin-7-yloxy)phenyl]imidazo[1,2-a]pyrazine] and `Cc1cc(Oc2nccc3ccoc23)ccc1-c1c(C)ncc2nccn12` [Example 9, 5-[4-(furo[2,3-c]pyridin-7-yloxy)-2-methylphenyl]-6-methylimidazo[1,2-a]pyrazine] are within 1.5-fold of each other in Ki: 68.9 nM for the first, 57.2 nM for the second.

Going from `Cc1cnnc(C)c1-c1ccc(Oc2nccc3ccsc23)cc1C#N` [Example 43, 2-(3,5-dimethylpyridazin-4-yl)-5-(thieno[2,3-c]pyridin-7-yloxy)benzonitrile, trifluoroacetate salt] to `Cc1cc(Oc2nccc3ccsc23)ccc1-c1c(C)cnnc1C` [Example 14, 7-[4-(3,5-dimethylpyridazin-4-yl)-3-methylphenoxy]thieno[2,3-c]pyridine], the Ki falls from 46.3 nM to 3.3 nM (14-fold).

Going from `Cc1cc(Oc2nccc3cc[nH]c23)ccc1-c1c(C)ncnc1C#N` [Example 55, 6-methyl-5-[2-methyl-4-(1H-pyrrolo[2,3-c]pyridin-7-yloxy)phenyl]pyrimidine-4-carbonitrile] to `Cc1cc(Oc2nccc3ccsc23)ccc1-c1c(C)ncnc1C#N` (single isomer, unassigned; ent-1) [Example 45, 6-methyl-5-[2-methyl-4-(thieno[2,3-c]pyridin-7-yloxy)phenyl]pyrimidine-4-carbonitrile, ENT-1], the Ki falls from 614 nM to 14.3 nM (43-fold).

Compared with `Cc1ncnc(C)c1-c1ccc(Oc2nccc3ccsc23)c(F)c1` [Example 39, 7-[4-(4,6-dimethylpyrimidin-5-yl)-2-fluorophenoxy]thieno[2,3-c]pyridine], `Cc1ncnc(C)c1-c1cc(F)c(Oc2nccc3ccsc23)c(F)c1` [Example 37, 7-[4-(4,6-dimethylpyrimidin-5-yl)-2,6-difluorophenoxy]thieno[2,3-c]pyridine] is 2.8-fold higher in Ki: 28.2 nM for the first, 79.8 nM for the second.

Going from `Cc1ncnc(C#N)c1-c1ccc(Oc2nccc3ccsc23)cc1F` [Example 13, 5-[2-fluoro-4-(thieno[2,3-c]pyridin-7-yloxy)phenyl]-6-methylpyrimidine-4-carbonitrile] to `Cc1cnnc(C)c1-c1ccc(Oc2nccc3ccsc23)cc1F` [Example 47, 7-[4-(3,5-dimethylpyridazin-4-yl)-3-fluorophenoxy]thieno[2,3-c]pyridine], the Ki falls from 34.5 nM to 6.1 nM (5.7-fold).

`Cc1ncnc(C)c1-c1ccc(Oc2nccc3ncsc23)c(F)c1C` [Example 66, 4-[4-(4,6-dimethylpyrimidin-5-yl)-2-fluoro-3-methylphenoxy][1,3]thiazolo[5,4-c]pyridine] and `Cc1cc(Oc2nccc3ncsc23)c(F)cc1-c1c(C)ncnc1C` [Example 34, 4-[4-(4,6-dimethylpyrimidin-5-yl)-2-fluoro-5-methylphenoxy][1,3]thiazolo[5,4-c]pyridine] are within 1.5-fold of each other in Ki: 175 nM for the first, 151 nM for the second.

First: Cc1cc(Oc2nccc3ccsc23)c(F)cc1-c1c(C)ncnc1C [Example 38, 7-[4-(4,6-dimethylpyrimidin-5-yl)-2-fluoro-5-methylphenoxy]thieno[2,3-c]pyridine]
Second: Cc1cc(Oc2nccc3ccoc23)ccc1-c1c(C)ncnc1C [Example 11, 7-[4-(4,6-dimethylpyrimidin-5-yl)-3-methylphenoxy]furo[2,3-c]pyridine]
The Ki of the first is 7.3-fold lower: 7.9 nM for the first, 57.8 nM for the second. The first binds more tightly here.

Going from `Cc1cc(Oc2nccc3ncsc23)ccc1-c1c(C)cnnc1C` (single isomer, unassigned) [Example 65, (−)-4-[4-(3,5-dimethylpyridazin-4-yl)-3-methylphenoxy][1,3]thiazolo[5,4-c]pyridine] to `Cc1cnnc(C)c1-c1ccc(Oc2nccc3ncsc23)cc1F` [Example 63, 4-[4-(3,5-dimethylpyridazin-4-yl)-3-fluorophenoxy][1,3]thiazolo[5,4-c]pyridine], the Ki falls from 223 nM to 109 nM (2-fold).

Compared with `Cc1cc(Oc2ncnc3ncsc23)ccc1-c1c(C)ncnc1C` [Example 57, 7-[4-(4,6-dimethylpyrimidin-5-yl)-3-methylphenoxy][1,3]thiazolo[4,5-d]pyrimidine], `COc1cc(Oc2nccc3ncsc23)ccc1-c1c(C)ncnc1C` [Example 59, 4-[4-(4,6-dimethylpyrimidin-5-yl)-3-methoxyphenoxy][1,3]thiazolo[5,4-c]pyridine] is 13-fold lower in Ki: 2340 nM for the first, 185 nM for the second. The second binds more tightly here.

Compared with `Cc1cc(Oc2nccc3ncsc23)ccc1-c1c(C)cnnc1C` [Example 60, 4-[4-(3,5-dimethylpyridazin-4-yl)-3-methylphenoxy][1,3]thiazolo[5,4-c]pyridine], `Cc1cc(Oc2nccc3ncsc23)ccc1-c1c(C)n[nH]c(=O)c1C` [Example 26, 4,6-dimethyl-5-[2-methyl-4-([1,3]thiazolo[5,4-c]pyridin-4-yloxy)phenyl]pyridazin-3(2H)-one] is 5.4-fold lower in Ki: 65.3 nM for the first, 12.2 nM for the second. The second binds more tightly here.

Compared with `Cc1nc2cnccc2n1-c1ccc(Oc2nccc3ccsc23)cc1` [Example 51, 2-methyl-1-[4-(thieno[2,3-c]pyridin-7-yloxy)phenyl]-1H-imidazo[4,5-c]pyridine, trifluoroacetate salt], `Cc1cc(Oc2nccc3ccsc23)ccc1-n1c(C)nc2cnccc21` [Example 8, 2-methyl-1-[2-methyl-4-(thieno[2,3-c]pyridin-7-yloxy)phenyl]-1H-imidazo[4,5-c]pyridine] is 6.8-fold lower in Ki: 89.5 nM for the first, 13.1 nM for the second. The second binds more tightly here.

Going from `Cc1c(-c2ccc(Oc3ncnc4ccsc34)cc2)n(C)c(=O)[nH]c1=O` [Example 68, 1,5-dimethyl-6-[4-(thieno[3,2-d]pyrimidin-4-yloxy)phenyl]pyrimidine-2,4(1H,3H)-dione] to `Cc1ncnc(C)c1-c1ccc(Oc2ncnc3ccsc23)cc1` [Example 22, 4-[4-(4,6-dimethylpyrimidin-5-yl)phenoxy]thieno[3,2-d]pyrimidine], the Ki rises from 15.6 nM to 146 nM (9.4-fold).

First: Cc1cc(Oc2nccc3ncsc23)ccc1-c1c(C)ncc2nccn12 (single isomer, unassigned; ent-2) [Example 62, 4-[3-methyl-4-(6-methylimidazo[1,2-a]pyrazin-5-yl)phenoxy][1,3]thiazolo[5,4-c]pyridine, ENT-2]
Second: Cc1n[nH]c(=O)c(C)c1-c1ccc(Oc2nccc3ncsc23)cc1 [Example 28, 4,6-dimethyl-5-[4-([1,3]thiazolo[5,4-c]pyridin-4-yloxy)phenyl]pyridazin-3(2H)-one]
The Ki of the first is 9.6-fold higher: 239 nM for the first, 25 nM for the second. The second binds more tightly here.

In the case of `Cc1nc2ccnc(Oc3ccc(-c4c(C)n[nH]c(=O)c4C)c(C)c3)c2s1` [Example 56, 4,6-dimethyl-5-{2-methyl-4-[(2-methyl[1,3]thiazolo[5,4-c]pyridin-4-yl)oxy]phenyl}pyridazin-3(2H)-one], the Ki is reported as 106 nM.

From patent publication US9688698B2, “Heteroaromatic compounds and their use as dopamine D1 ligands” (PFIZER INC., priority 2014, dated 2017)
